The target in one data set is Cytochrome P450 3A4 (Homo sapiens, UniProt P08684). As to the kind of experiment: Inhibition of human recombinant CYP3A4 using 7-benzyloxy-4-trifluoromethylcoumarin as substrate after 30 mins by fluorimetry. The format is ADME.
The target in data set [1] is Macrophage metalloelastase (Homo sapiens, UniProt P39900). As to the kind of experiment: Inhibition of human recombinant MMP12 after 30 mins by fluorimetry.
The target of another data set is T1, Matrilysin (Homo sapiens, UniProt P09237).
T1 sequence (P09237 whole entry): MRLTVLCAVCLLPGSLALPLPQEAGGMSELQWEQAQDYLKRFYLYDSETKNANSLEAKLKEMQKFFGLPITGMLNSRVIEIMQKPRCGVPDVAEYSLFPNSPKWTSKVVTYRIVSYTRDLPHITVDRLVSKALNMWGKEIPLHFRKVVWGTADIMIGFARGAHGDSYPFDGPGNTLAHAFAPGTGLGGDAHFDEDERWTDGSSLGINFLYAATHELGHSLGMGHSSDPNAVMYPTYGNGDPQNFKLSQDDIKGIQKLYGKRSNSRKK
As to the kind of experiment: Inhibition of human recombinant MMP7 after 30 mins by fluorimetry.

A short description of data set [2]: Lipophilicity, log P of the compound. It is filed as physicochemical. As to conditions: octanol/water; call rule not given here.
Another data set concerns the target Cytochrome P450 2C9 (Homo sapiens, UniProt P11712). As to the kind of experiment: Inhibition of human recombinant CYP2C9 using 7-methoxy-4-trifluoromethylcoumarin as substrate after 45 mins by fluorimetry. It is filed as ADME.
Data set [3] has as its target T2, Collagenase 3 (Homo sapiens, UniProt P45452). As to the kind of experiment: Inhibition of human MMP13-mediated degradation of bovine nasal cartilage after 2 hrs by ELISA in the presence of 10% human serum. For orientation: In an ELISA, binding on a coated surface is turned into a signal by an enzyme label.
A short description of data set [4]: Half life in Sprague-Dawley rat at 1 mg/kg, iv and 10 mg/kg, po. It is filed as ADME, organism-based. As to conditions: in vivo.
Another data set has as its target T3, Interstitial collagenase (Homo sapiens, UniProt P03956).
T3 sequence (P03956 whole entry): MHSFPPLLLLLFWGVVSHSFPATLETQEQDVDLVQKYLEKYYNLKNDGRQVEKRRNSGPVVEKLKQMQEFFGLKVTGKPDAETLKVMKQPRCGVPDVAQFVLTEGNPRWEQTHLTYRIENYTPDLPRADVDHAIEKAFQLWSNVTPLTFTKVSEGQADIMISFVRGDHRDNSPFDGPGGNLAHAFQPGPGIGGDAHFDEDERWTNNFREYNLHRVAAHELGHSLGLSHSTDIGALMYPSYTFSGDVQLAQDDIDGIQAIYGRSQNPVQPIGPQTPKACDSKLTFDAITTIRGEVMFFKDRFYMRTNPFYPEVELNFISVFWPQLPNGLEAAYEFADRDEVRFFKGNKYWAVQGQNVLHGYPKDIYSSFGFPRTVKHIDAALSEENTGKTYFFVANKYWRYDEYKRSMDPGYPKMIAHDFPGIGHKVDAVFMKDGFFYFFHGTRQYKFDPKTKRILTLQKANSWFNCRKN
As to the kind of experiment: Inhibition of human recombinant MMP1 after 30 mins by fluorimetry.

In data set [5] the target is T2, Collagenase 3. As to the kind of experiment: Inhibition of […]-activated MMP13-mediated degradation of FITC-labeled type2 collagen after 1.5 hrs by fluorimetry.
The target in data set [6] is T2, Collagenase 3. As to the kind of experiment: Inhibition of MMP13 after 30 mins by fluorimetry in the presence of 1.25% human serum albumin.
Data set [7] deals with Rattus norvegicus. As to the kind of experiment: AUC in Sprague-Dawley rat at 10 mg/kg, po. Details: dose 10 mg/kg, route oral. Conditions: in vivo. The format is ADME, organism-based, Plasma.
Data set [8] deals with T2, Collagenase 3.
Description: Inhibition of human MMP13 expressed in Escherichia coli after 30 mins by fluorimetry
Data set [9] is described as follows: Oral bioavailability in Sprague-Dawley rat at 10 mg/kg. The format is ADME, organism-based. As to conditions: in vivo.
A short description of data set [10]: Aqueous solubility of the compound at pH 7.4 by UV spectrophotometry. It is filed as physicochemical. As to conditions: buffer.
The test system of data set [11] is Rattus norvegicus. As to the kind of experiment: AUC in Sprague-Dawley rat at 1 mg/kg, iv. It is filed as ADME, organism-based, Plasma. Conditions: in vivo. Details: dose 1 mg/kg, route intravenous.
Data set [12] is described as follows: Clearance in Sprague-Dawley rat at 1 mg/kg, iv and 10 mg/kg, po. It is filed as ADME, organism-based. As to conditions: in vivo.
The target in another data set is Stromelysin-1 (Homo sapiens, UniProt P08254). As to the kind of experiment: Inhibition of human recombinant MMP3 after 30 mins by fluorimetry.
Data set [13] addresses Matrix metalloproteinase-9 (Homo sapiens, UniProt P14780). As to the kind of experiment: Inhibition of human recombinant MMP9 after 30 mins by fluorimetry.
The subject of data set [14] is Rattus norvegicus. As to the kind of experiment: Volume of distribution at steady state in Sprague-Dawley rat at 1 mg/kg, iv and 10 mg/kg, po. Conditions: in vivo. It is filed as ADME, organism-based.
The target of a further data set is Stromelysin-2 (Homo sapiens, UniProt P09238). As to the kind of experiment: Inhibition of human recombinant MMP10 after 30 mins by fluorimetry.
A further data set concerns the target Neutrophil collagenase (Homo sapiens, UniProt P22894). As to the kind of experiment: Inhibition of human recombinant MMP8 after 30 mins by fluorimetry.
A short description of data set [15]: Cmax in Sprague-Dawley rat at 1 mg/kg, iv and 10 mg/kg, po. It is filed as ADME, organism-based. As to conditions: in vivo.
The target of data set [16] is Matrix metalloproteinase-14 (Homo sapiens, UniProt P50281). As to the kind of experiment: Inhibition of human recombinant MMP14 after 60 mins by fluorimetry.
In data set [17] the target is 72 kDa type IV collagenase (Homo sapiens, UniProt P08253). As to the kind of experiment: Inhibition of human recombinant MMP2 after 30 mins by fluorimetry.
The subject of a further data set is Liver microsomes. As to the kind of experiment: Drug metabolism in Sprague-Dawley rat liver microsomes assessed as ester hydrolysis product formation. It is filed as ADME, Microsome. (Liver microsomes are vesicles of endoplasmic reticulum, rich in cytochrome P450 enzymes.)
Data set [18] in a line: Metabolic stability in human liver microsomes after 5 mins relative to human hepatic blood flow. It is filed as ADME, Microsome. Conditions: read-out: Stability.

In brackets after ≈: the same amount, converted by molar mass. Bounds are passed on as bounds.

Sequence of 72 kDa type IV collagenase (P08253 whole entry): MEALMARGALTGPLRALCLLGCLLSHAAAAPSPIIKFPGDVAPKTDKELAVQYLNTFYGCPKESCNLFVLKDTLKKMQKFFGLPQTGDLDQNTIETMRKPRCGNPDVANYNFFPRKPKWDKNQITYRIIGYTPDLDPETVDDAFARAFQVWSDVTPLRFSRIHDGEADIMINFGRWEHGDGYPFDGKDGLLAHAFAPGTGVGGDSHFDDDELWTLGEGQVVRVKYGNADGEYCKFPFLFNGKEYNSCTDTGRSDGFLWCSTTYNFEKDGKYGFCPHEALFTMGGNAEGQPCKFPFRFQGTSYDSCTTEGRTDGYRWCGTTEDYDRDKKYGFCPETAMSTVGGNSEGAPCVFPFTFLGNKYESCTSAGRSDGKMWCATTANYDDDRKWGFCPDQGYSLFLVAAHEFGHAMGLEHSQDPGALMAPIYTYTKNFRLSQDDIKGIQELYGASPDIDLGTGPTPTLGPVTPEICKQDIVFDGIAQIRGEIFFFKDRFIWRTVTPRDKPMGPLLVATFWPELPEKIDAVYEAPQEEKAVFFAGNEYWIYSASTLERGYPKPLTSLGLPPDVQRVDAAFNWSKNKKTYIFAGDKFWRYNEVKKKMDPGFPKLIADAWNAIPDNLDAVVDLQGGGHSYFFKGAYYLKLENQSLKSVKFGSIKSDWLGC
Sequence of Stromelysin-2 (P09238 whole entry): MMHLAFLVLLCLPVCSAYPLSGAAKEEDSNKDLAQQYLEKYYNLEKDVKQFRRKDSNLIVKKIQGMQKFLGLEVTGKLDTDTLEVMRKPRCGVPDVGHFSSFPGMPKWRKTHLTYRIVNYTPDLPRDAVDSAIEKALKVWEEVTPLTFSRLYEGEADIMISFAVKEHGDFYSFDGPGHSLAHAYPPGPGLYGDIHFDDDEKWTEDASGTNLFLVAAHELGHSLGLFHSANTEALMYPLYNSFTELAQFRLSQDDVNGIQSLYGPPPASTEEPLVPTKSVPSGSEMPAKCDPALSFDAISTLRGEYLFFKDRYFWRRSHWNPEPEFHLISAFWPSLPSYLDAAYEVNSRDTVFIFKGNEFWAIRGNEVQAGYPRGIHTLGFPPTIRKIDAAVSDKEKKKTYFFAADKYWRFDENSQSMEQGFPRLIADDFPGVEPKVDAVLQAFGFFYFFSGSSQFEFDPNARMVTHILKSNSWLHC
Sequence of Cytochrome P450 2C9 (P11712 whole entry): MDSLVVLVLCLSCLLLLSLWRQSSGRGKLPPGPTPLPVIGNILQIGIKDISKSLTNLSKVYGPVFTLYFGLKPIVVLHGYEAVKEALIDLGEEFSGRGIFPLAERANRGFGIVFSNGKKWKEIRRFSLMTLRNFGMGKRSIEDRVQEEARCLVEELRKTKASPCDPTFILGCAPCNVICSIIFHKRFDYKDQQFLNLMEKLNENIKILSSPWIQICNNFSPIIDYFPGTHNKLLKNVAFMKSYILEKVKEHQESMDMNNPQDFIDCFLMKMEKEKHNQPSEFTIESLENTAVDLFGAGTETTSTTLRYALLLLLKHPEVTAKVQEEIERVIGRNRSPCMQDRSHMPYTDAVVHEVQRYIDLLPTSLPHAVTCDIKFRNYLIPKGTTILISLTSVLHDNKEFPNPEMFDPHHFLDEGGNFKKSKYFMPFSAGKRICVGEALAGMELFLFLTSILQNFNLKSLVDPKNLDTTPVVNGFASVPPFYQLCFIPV
Sequence of Stromelysin-1 (P08254 whole entry): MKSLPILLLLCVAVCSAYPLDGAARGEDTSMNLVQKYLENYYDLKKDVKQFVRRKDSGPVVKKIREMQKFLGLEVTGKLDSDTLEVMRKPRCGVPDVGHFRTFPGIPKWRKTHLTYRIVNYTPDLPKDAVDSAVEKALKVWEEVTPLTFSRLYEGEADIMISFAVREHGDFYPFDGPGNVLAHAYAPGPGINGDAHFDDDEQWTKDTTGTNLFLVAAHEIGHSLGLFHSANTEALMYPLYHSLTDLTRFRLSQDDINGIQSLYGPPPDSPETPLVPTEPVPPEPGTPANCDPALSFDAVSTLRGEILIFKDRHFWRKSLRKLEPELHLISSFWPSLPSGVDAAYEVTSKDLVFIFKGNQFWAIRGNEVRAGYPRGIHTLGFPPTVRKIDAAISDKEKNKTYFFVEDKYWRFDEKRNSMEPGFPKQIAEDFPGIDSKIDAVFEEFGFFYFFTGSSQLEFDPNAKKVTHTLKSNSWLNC
Sequence of Neutrophil collagenase (P22894 whole entry): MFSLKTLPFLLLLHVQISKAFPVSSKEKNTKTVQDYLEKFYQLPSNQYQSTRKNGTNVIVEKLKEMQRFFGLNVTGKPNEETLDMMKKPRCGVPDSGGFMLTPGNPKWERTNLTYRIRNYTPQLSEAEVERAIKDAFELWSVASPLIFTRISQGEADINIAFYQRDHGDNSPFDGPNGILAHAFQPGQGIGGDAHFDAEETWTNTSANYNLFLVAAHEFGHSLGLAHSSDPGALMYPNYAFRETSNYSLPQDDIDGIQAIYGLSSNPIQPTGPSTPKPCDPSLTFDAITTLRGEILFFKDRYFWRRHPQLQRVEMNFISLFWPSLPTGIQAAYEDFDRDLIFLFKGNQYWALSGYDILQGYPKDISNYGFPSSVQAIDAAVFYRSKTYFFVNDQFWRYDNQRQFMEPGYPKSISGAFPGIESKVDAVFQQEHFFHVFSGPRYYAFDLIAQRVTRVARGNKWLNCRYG
Sequence of Macrophage metalloelastase (P39900 whole entry): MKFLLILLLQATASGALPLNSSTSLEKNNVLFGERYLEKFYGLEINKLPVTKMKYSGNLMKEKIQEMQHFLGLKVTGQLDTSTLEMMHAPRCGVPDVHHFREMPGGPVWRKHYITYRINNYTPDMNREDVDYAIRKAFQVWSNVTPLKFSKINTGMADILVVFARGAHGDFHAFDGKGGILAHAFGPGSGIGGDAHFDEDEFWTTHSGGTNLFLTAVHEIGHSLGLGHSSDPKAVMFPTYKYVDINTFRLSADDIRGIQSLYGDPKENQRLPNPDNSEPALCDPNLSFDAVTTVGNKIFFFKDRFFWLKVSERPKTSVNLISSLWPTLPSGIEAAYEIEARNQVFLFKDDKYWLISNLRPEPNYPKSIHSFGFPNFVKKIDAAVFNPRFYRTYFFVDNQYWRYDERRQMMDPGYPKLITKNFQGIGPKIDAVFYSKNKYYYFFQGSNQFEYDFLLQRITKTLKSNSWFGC
Sequence of Cytochrome P450 3A4 (P08684 whole entry): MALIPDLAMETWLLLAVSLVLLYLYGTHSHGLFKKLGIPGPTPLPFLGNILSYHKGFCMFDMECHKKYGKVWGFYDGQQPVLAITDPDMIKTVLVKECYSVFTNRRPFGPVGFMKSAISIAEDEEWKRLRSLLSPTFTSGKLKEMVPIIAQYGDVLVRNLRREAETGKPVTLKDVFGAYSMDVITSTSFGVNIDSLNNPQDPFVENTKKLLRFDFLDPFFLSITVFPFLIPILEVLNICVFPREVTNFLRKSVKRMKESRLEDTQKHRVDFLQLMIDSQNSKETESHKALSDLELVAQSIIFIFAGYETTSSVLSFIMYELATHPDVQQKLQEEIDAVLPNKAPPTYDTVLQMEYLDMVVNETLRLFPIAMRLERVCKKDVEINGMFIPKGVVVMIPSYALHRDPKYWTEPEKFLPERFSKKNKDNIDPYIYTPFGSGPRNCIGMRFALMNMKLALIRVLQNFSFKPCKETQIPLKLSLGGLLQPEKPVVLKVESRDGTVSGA
Sequence of Matrix metalloproteinase-9 (P14780 whole entry): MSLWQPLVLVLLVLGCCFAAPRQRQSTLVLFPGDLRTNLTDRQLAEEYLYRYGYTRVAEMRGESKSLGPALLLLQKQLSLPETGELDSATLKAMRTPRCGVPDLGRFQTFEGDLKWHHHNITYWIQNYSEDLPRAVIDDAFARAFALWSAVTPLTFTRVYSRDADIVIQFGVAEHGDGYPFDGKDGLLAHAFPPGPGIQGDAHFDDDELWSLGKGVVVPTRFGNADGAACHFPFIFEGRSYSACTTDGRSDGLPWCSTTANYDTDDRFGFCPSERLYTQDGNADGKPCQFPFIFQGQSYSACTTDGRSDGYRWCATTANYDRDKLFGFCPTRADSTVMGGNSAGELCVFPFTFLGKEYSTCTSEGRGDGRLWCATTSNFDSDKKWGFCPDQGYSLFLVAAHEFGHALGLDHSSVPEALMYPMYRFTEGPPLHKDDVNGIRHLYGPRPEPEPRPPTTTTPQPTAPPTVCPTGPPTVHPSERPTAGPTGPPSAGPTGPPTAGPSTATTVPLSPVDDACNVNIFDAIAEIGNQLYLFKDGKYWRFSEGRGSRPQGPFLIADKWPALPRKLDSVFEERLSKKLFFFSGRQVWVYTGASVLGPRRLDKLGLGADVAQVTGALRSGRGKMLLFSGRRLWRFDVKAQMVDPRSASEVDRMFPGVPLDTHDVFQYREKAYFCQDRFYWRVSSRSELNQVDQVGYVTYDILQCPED

In the case of `CCOC(=O)c1cc2cc(-c3cc(C(=O)NCc4ccc(C(=O)O)cc4)nn3C)ccc2[nH]1` [BI 4394], the IC50 (commonly the concentration needed to halve the response being measured) on Cytochrome P450 3A4 was above 30 µM; in data set [1] it was above 22 µM; at Matrilysin it was above 22 µM; at Cytochrome P450 2C9, above 30 µM; at Collagenase 3 [3], 0.031 µM; on Interstitial collagenase, above 22 µM. In addition, the IC50 on Collagenase 3 [5] was 0.011 µM; on Collagenase 3 [6], 0.004 µM; against Collagenase 3 [8], 0.001 µM; on Stromelysin-1 it was above 22 µM; in [13] it was 8.9 µM; at Stromelysin-2 it was 16 µM. The IC50 at Neutrophil collagenase is above 22 µM. In data set [2], the logP – broadly, a log measure of how a compound divides between an organic and an aqueous phase – worked out at 1.9. Besides, the half-life (in general, the time in which the quantity being followed falls by half) in [4] was 28.2 min. The AUC with Rattus norvegicus [7] is listed as 4328 nM.hr/ml; in the data set with Rattus norvegicus [11] it was 1109 nM.hr/ml. For the same molecule, the bioavailability (usually dose-corrected exposure relative to a reference, in per cent) in [9] amounted to 39%. Besides, the solubility (in general, how much of the substance goes into solution per volume) in [10] was 60 µg/mL (≈ 134 µM). The same molecule displayed a clearance in [12] of 34 mL/min/kg. Further, the Vdss with Rattus norvegicus [14] came out at 0.26 L/kg. Moreover, in data set [15], the highest level (Cmax) was 1660 nM.
On to `CC(=O)Nc1ccc2[nH]c(C3=NCCO3)cc2c1`, for which the IC50 in [16] is above 500 µM; at Collagenase 3 [8], 220 µM; in data set [17] it was above 500 µM.
In the case of `CCOC(=O)c1cc2cc(-c3ccncc3C)ccc2[nH]1`, the IC50 in [16] is above 500 µM; against Collagenase 3 [8] it was 9.6 µM; in data set [17] it was above 500 µM.
Take `Cn1nc(C(=O)NCc2ccc(C(=O)O)cc2)cc1-c1ccc2[nH]c(C(=O)O)cc2c1`: the IC50 at Collagenase 3 [6] is 56 µM; against Collagenase 3 [8], 25 µM. The Drug metabolism result in the data set on Liver microsomes was “Active”.
With `CCOC(=O)c1cc2cc(-c3cccnc3)ccc2[nH]1`, the concentration for half-maximal inhibition (IC50) came out at 51 µM in [16], 15 µM on Collagenase 3 [8] and 30 µM in data set [17].
With `CCOCc1cc2cc(-c3cc(C(=O)NCc4ccc(C(=O)O)cc4)nn3C)ccc2[nH]1`, the results for the IC50 on Collagenase 3 [6] and at Collagenase 3 [8] were 1.9 µM and 0.25 µM, respectively. The hepatic extraction ratio at 5 min in data set [18] was 0.78.
Take `CCOC(=O)c1cc2cc(NC(C)=O)ccc2[nH]1`: the IC50 was above 500 µM in [16], 31 µM at Collagenase 3 [8] and above 500 µM in [17].
Take `CCCC(=O)c1cc2cc(C(N)=O)ccc2[nH]1`: the IC50 (in data set [16]; against Collagenase 3 [8]; in [17]) was above 500 µM in each case.
Take `Cn1nc(C(=O)NCc2ccc(C(=O)O)cc2)cc1-c1ccc2[nH]ccc2c1` [BI 4395]: at Collagenase 3 [8], the IC50 is above 26 µM. The hepatic extraction ratio at 5 min in [18] was found to be 0.25.
As for `CCOC(=O)c1cc2cc(-c3cc(C(=O)NCc4ccncc4)ncc3C)ccc2[nH]1`, the IC50 is above 22 µM in [16], 0.64 µM at Collagenase 3 [6], 0.15 µM at Collagenase 3 [8] and above 20 µM in [17].
For `CCOC(=O)c1cc2cc(-c3cncn3C)ccc2[nH]1`, the IC50 amounted to 15 µM in [16], 2.5 µM against Collagenase 3 [8] and 24 µM in [17].
Turning to `CCOC(=O)c1cc2cc(-c3ccccc3)ccc2[nH]1`, the IC50 (in data set [16]; against Collagenase 3 [8]; in data set [17]) was above 500 µM each time.
Take `CCOC(=O)c1cc2cc(-c3cc(C(=O)NCc4ccc(=O)[nH]c4)nn3C)ccc2[nH]1`: the IC50 was 11 µM in data set [16], 0.28 µM on Collagenase 3 [6], 0.12 µM on Collagenase 3 [8] and above 24 µM in data set [17].
Take `CCOC(=O)c1cc2cc(C(N)=O)ccc2[nH]1`: the figures for the IC50 in data set [16] and in data set [17] were above 500 µM and 60 µM, respectively.
On to `CCOC(=O)c1cc2cc(NS(C)(=O)=O)ccc2[nH]1`, for which the values for the IC50 (in [16]; against Collagenase 3 [8]; in data set [17]) were above 500 µM, 97 µM and 210 µM, respectively.
For the molecule `CCOC(=O)c1cc2cc(-c3ccncc3)ccc2[nH]1`, the IC50 in [16] was 225 µM; against Collagenase 3 [8] it was 82 µM; in [17], 310 µM.
Take `CCOC(=O)c1cc2cc(-c3cc(C(=O)NCc4ccncc4)nn3C)ccc2[nH]1`: the IC50 was above 500 µM in data set [16], 0.36 µM on Collagenase 3 [6], 0.09 µM on Collagenase 3 [8] and above 500 µM in [17].
Take `CCOC(=O)c1cc2cc(-c3cc(C(=O)NCc4ccc(CC(=O)O)cc4)nn3C)ccc2[nH]1`: the figures for the IC50 (in data set [16]; on Collagenase 3 [6]; in data set [17]) were above 22 µM, 0.014 µM and above 22 µM, respectively.
For `CCOC(=O)c1cc2cc(-c3cc(C(=O)OC)nn3C)ccc2[nH]1`, the IC50 came to 41 µM in data set [16], 2.4 µM at Collagenase 3 [8] and 83 µM in data set [17].
The matching figures for `CCNC(=O)c1cc2cc(C(N)=O)ccc2[nH]1`: above 500 µM, above 500 µM and above 500 µM.
Consider `CCOC(=O)c1cc2cc(-c3ccccn3)ccc2[nH]1`, for which the IC50 (in [16]; at Collagenase 3 [8]; in data set [17]) was above 500 µM in each case.
